By IC50 is commonly meant the concentration needed to halve the response being measured. Lower therefore signals greater potency in that assay. As usually defined, the Kd is a measure of binding affinity in units of concentration. A high value points to a looser complex.

For one experiment, the species on record is Homo sapiens. In words: Tested for concentration required for antagonism of U-46,619-Induced Human Platelet Aggregation. In kind it is functional.
In the next experiment the target is T1, Thromboxane A2 receptor (Homo sapiens, UniProt P21731).
T1 sequence (P21731 whole entry): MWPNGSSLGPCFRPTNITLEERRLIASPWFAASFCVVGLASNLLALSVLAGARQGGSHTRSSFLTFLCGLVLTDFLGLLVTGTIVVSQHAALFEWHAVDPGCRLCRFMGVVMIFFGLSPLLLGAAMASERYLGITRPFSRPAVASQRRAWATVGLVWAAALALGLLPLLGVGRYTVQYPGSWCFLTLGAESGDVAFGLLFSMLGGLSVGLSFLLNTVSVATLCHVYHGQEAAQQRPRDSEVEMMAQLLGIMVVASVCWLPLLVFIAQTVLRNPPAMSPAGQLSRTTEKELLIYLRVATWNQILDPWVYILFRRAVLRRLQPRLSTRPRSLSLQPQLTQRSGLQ
In words: Tested for binding affinity against platelet TXA2 receptor in washed human platelets using [125I]BOP as radioligand.

Each structure is given as a SMILES string.

Compound `O=C(O)CCC/C=C\C[C@H]1CCC[C@@H]1NS(=O)(=O)c1ccccc1` displayed an IC50 in the experiment filed under Homo sapiens of 150 nM. In addition, on Thromboxane A2 receptor, binding was put at a Kd of 7.5 nM.
The compound `O=C(O)CCC/C=C\CC1C2CCC(C2)C1NS(=O)(=O)c1ccccc1` (stereo not given) returned an IC50 in the experiment listed under Homo sapiens of 32 nM. On Thromboxane A2 receptor, this compound showed a Kd of 2.9 nM.
For `O=C(O)CCC/C=C\C[C@H]1CCC[C@H]1NS(=O)(=O)c1ccccc1`, in that order: 250 nM and 36 nM.
With `O=C(O)CCC/C=C/CCCNS(=O)(=O)c1ccccc1`, the midpoint of inhibition in the experiment listed under Homo sapiens, the IC50, lay at 1000 nM. Further, the Kd on Thromboxane A2 receptor turned out to be 67 nM.
`O=C(O)CCCCCCCCNS(=O)(=O)c1ccccc1`: the IC50 in the experiment filed under Homo sapiens was 1500 nM. The Kd at Thromboxane A2 receptor came out at 172 nM.
